Measurements published in PubChem BioAssay (NCI).
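Step 1: Grow cells in 96-well plates. Step 2: Expose to compound for 48 hours at 5 concentrations. Step 3: Interpolate endpoints linearly; if unreached, use highest concentration. Definition used: TGI = concentration required for complete inhibition of growth.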

Legend:
Test in all cases: NCI tumour cell line growth inhibition, 48 h
UACC-257 melanoma = system: UACC-257 melanoma
HL-60(TB) leukemia = system: HL-60(TB) leukemia
ACHN renal = system: ACHN renal
SNB-19 CNS = system: SNB-19 CNS
NCI-H522 lung = system: NCI-H522 lung
NCI-H226 lung = system: NCI-H226 lung
TK-10 renal = system: TK-10 renal
MDA-N = system: MDA-N
RXF 393 renal = system: RXF 393 renal
MALME-3M melanoma = system: MALME-3M melanoma

Structure (SMILES)	TGI (UACC-257 melanoma)	TGI (HL-60(TB) leukemia)	TGI (ACHN renal)	TGI (SNB-19 CNS)	TGI (NCI-H522 lung)	TGI (NCI-H226 lung)	TGI (TK-10 renal)	TGI (MDA-N)	TGI (RXF 393 renal)	TGI (MALME-3M melanoma)
O=C1/C(=C/c2ccc(Cl)cc2)Oc2cc(O)ccc21	90.1 µM	34.9 µM	61.2 µM	87.4 µM	70.7 µM	62.3 µM	96.8 µM	> 100 µM	> 100 µM	–
COc1ccc(-n2c(SC(CN3CCOCC3)CN3CCCC3=O)nc3ccccc3c2=O)cc1 (stereo unspecified)	> 100 µM	> 100 µM	> 100 µM	> 100 µM	> 100 µM	> 100 µM	> 100 µM	> 100 µM	> 100 µM	> 100 µM
Oc1c(CN2CCCC2)ccc2cccnc12	> 100 µM	> 53.9 µM	59.5 µM	> 31.6 µM	> 100 µM	> 64 µM	88.7 µM	> 100 µM	> 100 µM	> 100 µM
CC(C)(C)NC1=NC(C(F)(F)F)(C(F)(F)F)NC(=O)N1	> 100 µM	59.6 µM	> 100 µM	> 100 µM	–	> 100 µM	> 100 µM	> 100 µM	> 100 µM	> 100 µM
Nc1nc(Cl)cc(OCC2(CO)CCCC2)n1	> 100 µM	> 100 µM	> 100 µM	> 100 µM	> 100 µM	> 100 µM	> 100 µM	> 100 µM	> 100 µM	> 100 µM
Cn1c(-c2ccc[se]2)ccc1-c1ccc(C=O)[se]1	3.5 µM	> 100 µM	> 100 µM	> 100 µM	35.2 µM	2.3 µM	0.439 µM	> 100 µM	7.14 µM	–
Cc1nn(C(=O)c2ccccc2O)c2c1C(c1ccc(O)cc1O)SC(N)=N2 (stereo unspecified)	–	> 10 µM	> 10 µM	> 10 µM	–	3.82 µM	> 10 µM	> 10 µM	> 10 µM	> 10 µM
O=C1/C(=C/c2ccc(O)cc2)CCCC1CN1CCCCC1 (stereo unspecified)	6.72 µM	0.924 µM	3.11 µM	31.8 µM	2.79 µM	18.2 µM	8.64 µM	10.8 µM	27.1 µM	3.36 µM
CCOC(=O)/C=C(/C(=O)OCC)n1cc(C)c(=O)n(Cc2cnnn2COCCOC(C)=O)c1=O	28.6 µM	13.5 µM	16.5 µM	> 100 µM	3.65 µM	28.7 µM	12.3 µM	48.5 µM	29.6 µM	13.3 µM
O=C(CN1CCCC1=O)CS(=O)(=O)c1ccccc1	> 100 µM	> 100 µM	> 100 µM	> 100 µM	> 100 µM	> 100 µM	> 100 µM	> 100 µM	> 100 µM	> 100 µM
Cc1nnc(N)nc1/C=C\c1ccc(Cl)cc1Cl	> 100 µM	53 µM	> 100 µM	> 100 µM	57.5 µM	46.2 µM	> 100 µM	> 100 µM	> 100 µM	59.3 µM
Clc1ccc(CCNC2(c3cc4ccccc4s3)CCCCC2)cc1Cl	42.7 µM	40.9 µM	63.3 µM	> 100 µM	43.9 µM	40.7 µM	65.9 µM	> 100 µM	36.7 µM	36.9 µM
COC(=O)Nc1nc2ccc(S(=O)(=O)Nc3ccccn3)cc2[nH]1	93.5 µM	34.8 µM	> 100 µM	> 100 µM	> 100 µM	> 100 µM	70.3 µM	> 100 µM	> 100 µM	> 100 µM
O=C(NC(=S)Nc1ccc([N+](=O)[O-])cc1)c1ccc2c(c1)Sc1ccccc1O2	> 100 µM	> 100 µM	> 100 µM	> 100 µM	> 100 µM	> 100 µM	> 100 µM	> 100 µM	–	> 100 µM
COC1=C[C@]2(CCC(=O)O2)[C@@H]2Cc3ccccc3[C@H](O)[C@@H]2C1=O	62 µM	77.6 µM	> 100 µM	> 100 µM	44.4 µM	> 100 µM	> 100 µM	30.1 µM	–	50.2 µM
COC(=O)CNC(=O)C(Cc1ccccc1)NC(=O)c1ccc(-c2ccc(Cl)cc2Cl)o1 (stereo unspecified)	57.5 µM	41.2 µM	66.5 µM	> 100 µM	43.3 µM	> 100 µM	75.2 µM	86.8 µM	73.5 µM	87.4 µM
CC(=O)OCC1OC(N2C(=O)NC(=O)C3C=C4CCCCC4=CC32)CC1OC(C)=O (stereo unspecified)	> 100 µM	> 100 µM	> 100 µM	> 100 µM	> 100 µM	> 100 µM	> 100 µM	> 100 µM	–	> 100 µM
COC(=O)c1c(O)ccc2c1c1cc3ccccc3cc1n2Cc1cc(OC)cc(OC)c1	> 100 µM	30.6 µM	> 100 µM	> 100 µM	0.415 µM	> 100 µM	> 100 µM	3.72 µM	> 26.5 µM	64.3 µM
Cc1c(C(=O)O)n2c(=S)[nH]nc2c2ccccc12	> 100 µM	> 100 µM	> 100 µM	> 100 µM	> 100 µM	> 100 µM	> 100 µM	> 100 µM	> 100 µM	–
N[C@H]1c2c(Br)sc(Br)c2C(=O)[C@H]1O	29.7 µM	10.5 µM	> 64.6 µM	55.5 µM	8.97 µM	62 µM	> 100 µM	30.1 µM	16.2 µM	29.6 µM
Cc1ccc(S(=O)(=O)N2CCC[C@@H]2C(=O)O[C@@H]2CCC3CC=CC32)cc1 (stereo partly specified)	64.4 µM	64.2 µM	> 100 µM	> 100 µM	50.8 µM	68.3 µM	> 100 µM	78.6 µM	66.5 µM	90 µM
CN(c1ccccc1)S(=O)(=O)c1ccc([N+](=O)[O-])cc1	> 100 µM	> 100 µM	> 100 µM	> 100 µM	> 100 µM	> 100 µM	> 100 µM	> 100 µM	> 100 µM	> 100 µM

Structure (SMILES)	TGI (UACC-257 melanoma)	TGI (HL-60(TB) leukemia)	TGI (ACHN renal)	TGI (SNB-19 CNS)	TGI (NCI-H522 lung)	TGI (NCI-H226 lung)	TGI (TK-10 renal)	TGI (MDA-N)	TGI (RXF 393 renal)	TGI (MALME-3M melanoma)
COc1ccc2nc3c([N+](=O)[O-])ccc(NCCN(C)C)c3c(N)c2c1	3.99 µM	0.41 µM	2.64 µM	3.98 µM	–	4.54 µM	3.09 µM	3.19 µM	3.36 µM	3.14 µM
COc1cc(C2c3cc4c(cc3OC(NNc3ccccc3)C2C)OCO4)cc(OC)c1OC (stereo unspecified)	> 100 µM	4.46 µM	27.5 µM	> 31 µM	4.72 µM	6.92 µM	31.8 µM	3.43 µM	> 94.3 µM	> 38.5 µM
CC(=O)OCC1OC(n2cnc3nc(Br)[nH]c(=O)c32)C(OC(C)=O)C1OC(C)=O (stereo unspecified)	> 100 µM	> 100 µM	> 100 µM	> 100 µM	> 100 µM	> 100 µM	> 100 µM	> 100 µM	> 100 µM	> 100 µM
C=C(C)[C@@H](O)[C@H](O)C[C@H](C)C1CC[C@]2(C)C1=CC[C@@H]1[C@@]3(C)CC[C@@H](OC(C)=O)C(C)(C)[C@@H]3C[C@@H](OC3OC(COC(C)=O)C(O)C(O)C3O)[C@]12C (stereo partly specified)	8.53 µM	4.2 µM	6.36 µM	14.7 µM	3.55 µM	10.3 µM	10.6 µM	8.55 µM	4.49 µM	4.81 µM
N#Cc1c(N)oc(-c2ccc([N+](=O)[O-])cc2)c1C#N	62 µM	> 100 µM	72.4 µM	91.6 µM	60.3 µM	46.5 µM	76.8 µM	> 100 µM	> 100 µM	95.9 µM
Fc1ccc(-c2sc(-c3ccsc3)cc2Cc2ccsc2)cc1	> 10 µM	> 10 µM	–	–	–	–	> 10 µM	> 10 µM	> 10 µM	> 10 µM
CC(C)NC(=O)OCc1c(COC(=O)NC(C)C)c(-c2ccc[n+](COC(=O)Cc3ccccc3)c2)n2c1CCC2	> 100 µM	> 100 µM	48.4 µM	> 100 µM	36.2 µM	> 100 µM	> 100 µM	> 100 µM	67.3 µM	97.2 µM
Cc1cc2cc3cc(C)c(N)cc3nc2cc1N	8.57 µM	11 µM	1.6 µM	3.29 µM	1.7 µM	11.7 µM	1.62 µM	2.93 µM	2.47 µM	2.72 µM
Cn1c(-c2ccc(-c3cc(-c4cccs4)c(-c4cccs4)n3C)cc2)cc(-c2cccs2)c1-c1cccs1	> 100 µM	> 100 µM	> 100 µM	> 100 µM	–	> 100 µM	> 100 µM	> 100 µM	> 100 µM	–
CC(C)(C)COC(=O)C(C)(C)NC(=O)C(CC(=O)OCc1ccccc1)NC(=O)OCc1ccccc1 (stereo unspecified)	82.1 µM	> 100 µM	> 100 µM	75.7 µM	> 100 µM	85.2 µM	78.7 µM	> 100 µM	> 100 µM	81.3 µM
Cn1c2ccc(F)cc2c2ccc3c(c21)C(=O)C=CC3=O	30.9 µM	2 µM	13.7 µM	> 100 µM	4.95 µM	> 91.3 µM	13.7 µM	27.7 µM	10.5 µM	23.2 µM
CCn1c2nc(=O)n(CCCCCCCCSC(c3ccccc3)(c3ccccc3)c3ccccc3)c(=O)c-2nc2ccccc21	> 100 µM	6.51 µM	60.8 µM	–	> 100 µM	> 100 µM	> 100 µM	> 100 µM	> 100 µM	–
CC(C)=CC1C(C(=O)Oc2ccccc2C(C)C)C1(C)C (stereo unspecified)	44.2 µM	38.5 µM	33 µM	> 100 µM	35.5 µM	–	96 µM	90 µM	33.5 µM	34.1 µM
c1coc(-c2nccc3c2[nH]c2ccccc23)c1	> 100 µM	> 100 µM	> 100 µM	> 100 µM	> 100 µM	95.8 µM	> 100 µM	> 100 µM	> 100 µM	> 100 µM
CCOC(=O)/C=C/C(=O)O/C=C/[N+](=O)[O-]	> 100 µM	> 100 µM	> 100 µM	–	> 100 µM	> 100 µM	> 100 µM	> 100 µM	> 100 µM	–
CC(C)C(Nc1ncnc2nc[nH]c12)C(=O)O (stereo unspecified)	> 100 µM	> 100 µM	> 100 µM	> 100 µM	> 100 µM	> 100 µM	> 100 µM	> 100 µM	> 100 µM	> 100 µM
O=c1ccc2ccc(CBr)cc2o1	24 µM	3.58 µM	–	24.8 µM	2.55 µM	23 µM	3.37 µM	15.1 µM	3.47 µM	–
COc1ccc2c(c1)CC[C@@H]1C2CC[C@]2(C)C(=O)N(CCN(C)C)C(=O)CC12 (stereo partly specified)	> 100 µM	> 100 µM	> 100 µM	> 100 µM	> 100 µM	> 100 µM	> 100 µM	> 100 µM	> 100 µM	> 100 µM
CSc1ncc2c(n1)-c1ccccc1OC2N1CCOCC1 (stereo unspecified)	> 100 µM	83.9 µM	> 100 µM	> 100 µM	> 100 µM	> 100 µM	> 100 µM	> 100 µM	> 100 µM	–
O=c1[nH]c2ccccc2c(O)c1Cc1ccccc1	> 100 µM	> 100 µM	> 100 µM	> 100 µM	> 100 µM	> 100 µM	> 100 µM	> 100 µM	> 100 µM	> 100 µM
Cc1cc2nc3c(C#N)c4c(c(Nc5ccc(F)cc5)n3c2cc1C)CCC4	> 100 µM	> 100 µM	> 100 µM	> 100 µM	> 100 µM	> 100 µM	> 100 µM	> 100 µM	> 100 µM	> 100 µM
Clc1cc(-c2ccccc2)nc(Nc2nc3ccccc3[nH]2)n1	44 µM	> 100 µM	33.3 µM	> 100 µM	33.1 µM	> 100 µM	> 100 µM	38.7 µM	19.1 µM	69.1 µM
